Patent publication US20220125746A1, “METHOD OF PREVENTING OR TREATING TREATMENT-INDUCED GASTROINTESTINAL INJURY” (priority 2019, published 2022)
Structures can show the parent of a compound that is named as a salt.

What was measured:
PUMA/BCL-xL = molecular target: T1, PUMA/BCL-xL (Homo sapiens, UniProt Q9BXH1); experiment: Immunoprecipitation of HA-PUMA / V5-Bcl-xL from 293 lysates; assay type: binding; settings: 25 uM, 15 min, anti-HA immunoprecipitation, western blot
T1 construct: expressed in transfected cells; host or cells: HEK293 (human embryonic kidney 293) cells, Lipofectamine 2000; lysates used
T1 sequence (Q9BXH1 1-193): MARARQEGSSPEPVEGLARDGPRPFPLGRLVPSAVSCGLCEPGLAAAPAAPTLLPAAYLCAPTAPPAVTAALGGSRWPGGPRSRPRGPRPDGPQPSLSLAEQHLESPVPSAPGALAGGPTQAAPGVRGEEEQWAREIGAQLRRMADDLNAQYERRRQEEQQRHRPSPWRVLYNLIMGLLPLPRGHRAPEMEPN
Procedure: (FIG. 10A) Structure of the PUMA inhibitor lead compound (PUMAi). (FIG. 10B) Lysates of 293 cells transfected with individual plasmids for 24 hours were mixed in the indicated combinations. Lysates were incubated with vehicle or PUMA inhibitor (PUMAi, 25 μM) for 15 min before immunoprecipitation with an anti-HA antibody. The HA-bound proteins and input were analyzed by western blotting. (FIG. 10C) Lysates of 293 cells transfected with individual plasmids for 24 h were mixed in the indicated combinations. Lysates were incubated with vehicle or PUMA Inhibitor (PUMAi, 25 μM) for 15 min before immunoprecipitation with an anti-HA antibody. The HA-bound proteins and input were analyzed by western blotting. (FIG. 10D) Indicated colon cancer cell lines were treated with camptothecin (CPT, 500 nM) for 24 h. HCT 116 cells and PUMA KO HCT 116 cells have WT p53, others have no (KO) or mutant p53. Apoptosis was measured by nuclear fragmentation assay. Values are mean+SEM; n=3 independent experiments. (FIG. 10E) Cells were treated as in D for 24 h and analyzed by western blotting. Representative results are shown, and similar results were obtained in at least three independent experiments. […]

[1] = system: colon cancer cell line DLD1; experiment: PUMA-induced apoptosis inhibition in DLD1
Procedure: PUMAi was added to cells at 25 uM at the same time as CPT.
A minimum of 300 cells per treatment were analyzed in triplicate.

WT mice = experiment: Survival after total body irradiation; assay type: in vivo, mouse; settings: 9.5 and 15 gray TBI; PUMAi 10 mg/kg 30 min before and after, then daily for 4 days
Procedure: (FIG. 12A) and (FIG. 12B) Survival of WT mice treated with 3 daily doses of 180 mg/kg/day (A) and 250 mg/kg/day (B) CPT-11, respectively, on days 0, 1, and 2. PUMAi (10 mg/kg) was given 2 hours before each dose of CPT-11 and 20 hours after the final dose. (FIG. 12C) and (FIG. 12D) Survival of WT mice after total body irradiation (TBI) at 9.5 Gy (FIG. 12C) and 15 Gy (FIG. 12D). PUMAi (10 mg/kg) was given 30 min before and 30 min after TBI, and then daily for 4 days. Survivors at 9.5 Gy TBI in C were sacrificed on day 40 with no obvious health problems. P values were calculated by log-rank test.

OCCN1CCN(CC(O)COc2ccc3ccccc3c2)CC1 (stereo not drawn) [PUMAi, 1-[4-(2-hydroxyethyl)-1-piperazinyl]-3-(2-naphthyloxy)-2-propanol dihydrochloride]
inhibition of PUMA/BCL-xL interaction (PUMA/BCL-xL): inhibit interaction of PUMA/BCL-xL | Apoptosis inhibition of DLD1 [1]: 39% | survival after total body irradiation (WT mice): increased the survival
